Series [1] has as its system secretion of cytokine IL-8 in human monocyte cell line THP-1. Kind of series: inhibition of LPS-triggered IL-8 secretion in THP-1 cells (ELISA). Format: cell-based. Set-up: Inhibition of IL-8 Secretion Efficacy: concentration or dose not given beside the values. As to conditions: THP-1, LPS-triggered. As to the method:
The concentration of the cytokines was determined in the supernatant with use of commercially available ELISA kits.
The potency of the inflammation inhibition is determined by the inhibition of the secretion of cytokine IL-8 in a cellular test. […] The concentration of the cytokine was determined in the supernatant by commercially available ELISA kits. In this connection, the compounds of formula I show a high to very high potency and action (>50%) in the inhibition (see Table 4). The potency of the racemates is considerably lower than that of the pure enantiomers.

Series [2] concerns the target T1, GR (IL-6 promoter) (Homo sapiens, UniProt P04150).
T1 sequence (P04150 1-777): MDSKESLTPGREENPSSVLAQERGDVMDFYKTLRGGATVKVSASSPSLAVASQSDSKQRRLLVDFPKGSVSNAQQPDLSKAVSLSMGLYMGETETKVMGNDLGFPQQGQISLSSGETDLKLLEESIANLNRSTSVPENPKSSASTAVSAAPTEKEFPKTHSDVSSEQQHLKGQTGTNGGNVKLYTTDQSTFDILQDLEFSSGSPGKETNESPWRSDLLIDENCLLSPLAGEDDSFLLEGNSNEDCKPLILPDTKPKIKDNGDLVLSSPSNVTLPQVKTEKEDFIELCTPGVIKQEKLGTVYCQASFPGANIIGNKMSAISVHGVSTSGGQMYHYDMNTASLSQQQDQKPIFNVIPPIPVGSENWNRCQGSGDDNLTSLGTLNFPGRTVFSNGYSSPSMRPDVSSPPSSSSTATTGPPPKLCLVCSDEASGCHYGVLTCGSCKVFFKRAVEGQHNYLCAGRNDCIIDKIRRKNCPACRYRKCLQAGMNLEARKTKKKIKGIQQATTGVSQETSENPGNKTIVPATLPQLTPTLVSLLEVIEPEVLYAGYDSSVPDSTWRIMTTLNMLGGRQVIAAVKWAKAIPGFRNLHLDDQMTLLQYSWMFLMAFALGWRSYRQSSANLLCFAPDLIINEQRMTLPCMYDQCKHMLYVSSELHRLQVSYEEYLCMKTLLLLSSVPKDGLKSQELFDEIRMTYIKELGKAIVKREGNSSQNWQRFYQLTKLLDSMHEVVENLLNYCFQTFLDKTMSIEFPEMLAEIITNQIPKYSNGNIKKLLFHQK
Kind of series: reporter gene test in HeLa cells, transrepression, IL-6 promoter-luciferase. As to conditions: for Emax: HeLa, read-out: Transrepression (TR)(IL-6-Promoter) Efficacy.
Description: (§1) The MMTV promoter (transactivation) and the IL-6 promoter (transrepression) in each case were upstream to the gene that codes for the luciferase. By means of the photometric determination of the enzyme activity of the luciferase, it was possible to measure the activation of the transcription (MMTV-promoter-construct) or the inhibition of the transcription (IL-6-promoter-construct) by the GR.
(§2) This dissociation of the mechanisms of action was determined with the aid of the reporter gene test in stable transfixed human HeLa cells. To determine the transactivation induced by the GR, the MMTV promoter, which is set before a luciferase gene, is used. Via the photometric determination of the luciferase activity, it was possible to determine the transactivation activities of the GR after binding the test compounds. The inhibition of the transcription of the luciferase gene, induced by tetradecanoyl-phorbol acetate (TPA) under the control of the IL-6 promoter or the collagenase promoter (transpression) by the GR after binding the test substances, was also determined by the measurement of luciferase activity in HeLa cells.

In series [3] the test system is croton oil-induced inflammation. The series is described as follows: croton oil-induced ear inflammation, edema formation in mice. As to conditions: systemic, two hours before croton oil, ear weight. It counts as in vivo. On the procedure:
The antiinflammatory actions of the compounds of general formula I were tested in the animal experiment by tests in the croton oil-induced inflammation in rats and mice (J. Exp. Med. (1995), 182, 99–108). In this connection, croton oil in ethanolic solution was administered topically to the animals' ears. The test substances were also administered topically or systemically simultaneously with or two hours before the croton oil. After 16–24 hours, the ear weight was measured as a yardstick of the inflammatory edema, the peroxidase activity was measured as a yardstick of the invasions of granuloctyes, and the elastase activity was measured as a yardstick of the invasion of neutrophilic granuloctyes.
The antiinflammatory action of the compounds of general formula I were tested in an animal experiment in croton oil-induced inflammation in mice and in rats (J. Exp. Med. (1995), 182, 99–108). In this connection, croton oil in ethanolic solution was administered topically to the animals' ears. The test substances were systemically administered for two hours before the croton oil. After 16–24 hours, the ear weight was measured as a yardstick for the inflammatory edema.

In series [4] the test system is tyrosinamino transferase (TAT). Kind of series: induction of tyrosinamino transferase (TAT) in liver homogenates. Format: in vivo. As to conditions: mice, 8 hours after administration, vs untreated control. An excerpt: One of the most frequent undesirable effects of a glucocorticoid therapy is the so-called “steroid diabetes” [cf. Hatz, H. J., Glucocorticoide: Immunologische Grundlagen, Pharmakologie und Therapierichtlinien [Glucocorticoids: Immunological Bases, Pharmacology and Therapy Guidelines], Wissenschaftliche Verlagsgesellschaft mbH, Stuttgart, 1998]. The reason for this is the stimulation of the gluconeogenesis in the liver by induction of the enzymes that are responsible for this effect and by free amino acids, which develop from the degradation of proteins (catabolic action of glucocorticoids). A key enzyme of the catabolic metabolism in the liver is the tyrosinamino transferase (TAT). The activity of this enzyme can be determined photometrically from liver homogenates and represents a good yardstick of the undesirable metabolic actions of the glucocorticoids. To measure the TAT induction, the animals are sacrificed 8 hours after the test substances are administered, the livers are removed, and the TAT activity in the homogenate is measured.
As parameters for the side effects of the catabolic metabolism induced by steroids, the activity of the enzyme tyrosinamino transferase (TAT) was determined by photometry from liver homogenates. The activity represents a good yardstick for the undesirable catabolic actions of the glucocorticoids. To measure the TAT induction, the animals (mice and rats) are killed 8 hours after the test substance is administered, the liver is removed, and the TAT activity is measured in the homogenates.

The target of series [5] is T2, human GR (Homo sapiens, UniProt P04150).
T2 construct: made in house; host or cells: Sf9 cells infected with recombinant baculovirus (cytosol preparation)
T2 sequence (P04150 1-777): T1 sequence (P04150 1-777)
The series is described as follows: glucocorticoid receptor (GR) binding test, cytosol of Sf9 cells, [3H]-dexamethasone. The conditions noted are these: human GR from Sf9 cytosol. An excerpt:
The binding of substances to the glucocorticoid receptor (GR) is examined with the aid of a recombinantly produced receptor. Cytosol preparations of Sf9 cells, which had been infected with recombinant baculoviruses, which code for the GR, are used for the binding studies.

Series [6] addresses T3, GR (MMTV promoter) (Homo sapiens, UniProt P04150).
T3 sequence (P04150 1-777): T1 sequence (P04150 1-777)
The series is described as follows: reporter gene test in HeLa cells, transactivation, MMTV promoter-luciferase. The conditions noted are these: for TA:TR EC50:IC50: MMTV promoter EC50 : IL-6 promoter IC50. For orientation: A reporter such as luciferase makes a cellular process visible.
Description: as §1, §2

The target of series [7] is T4, GR (collagenase promoter) (Homo sapiens, UniProt P04150).
T4 construct: endogenous in cells; host or cells: HeLa cells stably transfected with promoter-luciferase reporters (MMTV, IL-6 or collagenase promoter)
T4 sequence (P04150 1-777): T1 sequence (P04150 1-777)
Kind of series: reporter gene test in HeLa cells, transrepression, collagenase promoter-luciferase. It counts as cell-based. As to conditions: TPA-induced; for IC50: read-out: Transrepression (TR)(Collagenase Promoter) IC50.

Setting [8] is: HeLa cells, TPA-induced, luciferase.
Setting [9] is: read-out: Transrepression (TR)(IL-6-Promoter) IC50, HeLa cells, TPA-induced, luciferase.
Setting [10] is: read-out: Transactivating (TA)(MMTV-Promoter) EC50, HeLa cells, luciferase.

Read-outs that look alike come from different tables or passages of the source.

For the compound `Cc1noc(=O)c2ccc(NC(=O)C(O)(CC3(c4cccc5c4OCO5)CC3)C(F)(F)F)cc12` (single isomer, unassigned; (+)) [Example 4], the results for the half-maximal inhibitory concentration (IC50) in series [1] and in series [2] (setting [9]) were 29 nM and 1.5 nM, respectively. In series [1], the “Inhibition of IL-8 Secretion Efficacy” value amounted to 62%. Further, in series [2] (setting [8]), the “Transrepression (TR)(IL-6-Promoter) Efficacy” value is listed as 80%.
On to `Cc1noc(=O)c2ccc(NC(=O)C(O)(CC(C)(C)c3cc(Br)ccc3O)C(F)(F)F)cc12` (single isomer, unassigned; (+)) [Example 7, (+)-6-[4-(5-Bromo-2-hydroxyphenyl)-2-hydroxy-4-methyl-2-(trifluoromethyl)valeroylamino]-4-methyl-2,3-benzoxazin-1-one], for which, in series [3], the “Edema Inhibition with 3 mg/kg” value is on record as 22% and the “Edema Inhibition with 30 mg/kg” value is reported as 75%. Moreover, in series [4], the “Induction Factor for TAT with 3 mg/kg” value was 1.2 and the “Induction Factor for TAT with 30 mg/kg” value turned out to be 2.4.
Consider `COc1c(F)cccc1C1(CC(O)(C(=O)Nc2ccc3c(=O)onc(C)c3c2)C(F)(F)F)CCC1` (racemic) [Example 31], for which the IC50 in series [5] turned out to be 14 nM. In series [2], the IC50 turned out to be 5.4 nM and the Emax amounted to 67%.
With `Cc1noc(=O)c2ccc(NC(=O)C(O)(CC3(c4cccc(F)c4O)CCC3)C(F)(F)F)cc12` (single isomer, unassigned) [Example 33], in series [2], it took 2.2 nM to reach half-maximal inhibition (IC50) and the Emax stood at 80%. Also, in series [6], a half-maximal response (EC50) required 49 nM and the “TA:TR EC50:IC50” value came out at 22.3. Further, in series [6] (HeLa cells, luciferase), the “Transactivating (TA)(MMTV-Promoter) Efficacy” value (“Transactivating” for short) was found to be 76%.
In series [1] (Homo sapiens), `Cc1noc(=O)c2ccc(NC(=O)C(O)(CC3(c4cccc5c4OCO5)CC3)C(F)(F)F)cc12` (racemic) [Example 3] gave an IC50 of 39 nM. Besides, the “Inhibition of IL-8 Secretion Efficacy” value in series [1] was 53%. Further, in series [2], the IC50 amounted to 5.9 nM and the Emax was found to be 66%.
For `CCc1noc(=O)c2ccc(NC(=O)C(O)(CC(C)(C)c3cccc4ccoc34)C(F)(F)F)cc12` (single isomer, unassigned; (+)) [Example 8, (+)-4-Ethyl-6-[4-(7-benzofuranyl)-2-hydroxy-4-methyl-2-trifluoromethylvaleroylamino]-2,3-benzoxazin-1-one], in series [3], the “Edema Inhibition with 3 mg/kg” value is on record as 33% and the “Edema Inhibition with 30 mg/kg” value is 52%. For the same compound, in series [2], the IC50 amounted to 2.8 nM and the Emax was found to be 67%. In series [6], the EC50 came out at 50 nM and the “TA:TR EC50:IC50” value was 17.8. In series [6] (HeLa cells, luciferase), the “Transactivating” value worked out at 25%.
For the compound `Cc1noc(=O)c2ccc(NC(=O)C(O)(CC(C)(C)c3cc(F)cc4c3OCO4)C(F)(F)F)cc12` (single isomer, unassigned) [Example 19], in series [2], the IC50 amounted to 3.8 nM and the Emax came out at 91%.
For `CCc1noc(=O)c2ccc(NC(=O)C(O)(CC3(c4cccc5c4OCC5)CCC3)C(F)(F)F)cc12` (single isomer, unassigned) [Example 17], in series [2] (setting [8]), the “Transrepression (TR)(IL-6-Promoter) Efficacy” value came to 73%. Also, in series [2] (setting [9]), the IC50 is 4.6 nM. Further, in series [6] (HeLa cells, luciferase), the “Transactivating” value worked out at 50%. For the same compound, in series [6], the “TA:TR EC50:IC50” value is listed as 8.7. The EC50 in series [6] (setting [10]) came out at 40 nM.
With `C[C@]12C=CC(=O)C=C1CC[C@@H]1[C@@H]2[C@@H](O)C[C@@]2(C)[C@H]1CC[C@]2(O)C(=O)CO` [Prednisolone, reference compound], half-maximal inhibition in series [1] (Homo sapiens) (IC50) was put at 18 nM. The “Inhibition of IL-8 Secretion Efficacy” value in series [1] was 92%. Besides, in series [3], the “Edema Inhibition with 3 mg/kg” value was 35% and the “Edema Inhibition with 30 mg/kg” value is 84%. Also, in series [4], the “Induction Factor for TAT with 3 mg/kg” value worked out at 2.6 and the “Induction Factor for TAT with 30 mg/kg” value was found to be 8.0. The Emax in series [2] was determined as 94%. Moreover, the “Transrepression (TR)(Collagenase Promoter) Efficacy” value in series [7] worked out at 96%.
Consider `C[C@@H]1C[C@H]2[C@@H]3CCC4=CC(=O)C=C[C@]4(C)[C@@]3(F)[C@@H](O)C[C@]2(C)[C@@]1(O)C(=O)CO` [Dexamethasone, reference compound], for which, in series [2] (setting [8]), the “Transrepression (TR)(IL-6-Promoter) Efficacy” value was determined as 100%. Further, the “Transactivating” value in series [6] (HeLa cells, luciferase) is given as 100%. In addition, in series [7], the “Transrepression (TR)(Collagenase Promoter) Efficacy” value stood at 100%.
Regarding “(+)-6-[3-(Benzo[1,3]dioxol-4-yl)-cyclobutyl-2-hydroxy-2-trifluoromethyl-propionyl-amino]-4-methyl-2,3-benzoxazin-1-one [Example 6]”, in series [2] (setting [8]), the “Transrepression (TR)(IL-6-Promoter) Efficacy” value is 77%. In addition, the IC50 in series [2] (setting [9]) is 1.2 nM. In addition, in series [7], the “Transrepression (TR)(Collagenase Promoter) Efficacy” value amounted to 95% and the IC50 stood at 2.6 nM.
Regarding `Cc1noc(=O)c2ccc(NC(=O)C(O)(CC(C)(C)c3cccc4ccoc34)C(F)(F)F)cc12` (single isomer, unassigned) [Example 23], in series [4], the “Induction Factor for TAT with 3 mg/kg” value worked out at 1.1 and the “Induction Factor for TAT with 30 mg/kg” value is 1.0. In series [2] (setting [8]), the “Transrepression (TR)(IL-6-Promoter) Efficacy” value is given as 78%. Further, in series [2] (setting [9]), the IC50 came to 1.6 nM. Besides, the “Transactivating” value in series [6] (HeLa cells, luciferase) is given as 76%. The “TA:TR EC50:IC50” value in series [6] was found to be 6.2. For the same compound, in series [6] (setting [10]), the EC50 turned out to be 10 nM. In series [7], the “Transrepression (TR)(Collagenase Promoter) Efficacy” value turned out to be 78% and the IC50 came out at 4.9 nM.
With `Cc1noc(=O)c2ccc(NC(=O)C(O)(CC3(c4cccc5c4OCC5)CCC3)C(F)(F)F)cc12` (racemic) [Example 14], in series [1], the IC50 was 71 nM and the “Inhibition of IL-8 Secretion Efficacy” value is on record as 61%. In addition, the “Transrepression (TR)(IL-6-Promoter) Efficacy” value in series [2] (setting [8]) was found to be 85%. Also, the concentration for half-maximal inhibition (IC50) in series [2] (setting [9]) was 4.2 nM.
The corresponding values for `Cc1noc(=O)c2ccc(NC(=O)C(O)(CC3(c4cccc5c4OCC5)CCC3)C(F)(F)F)cc12` (single isomer, unassigned) [Example 15] are 7.5 nM, 74%, 74% and 1.5 nM.

As usually defined, the IC50 is the concentration that gives 50% inhibition. For orientation: EC50 means the concentration at which the effect is half-maximal.

These data come from US7112584B2, “Nonsteroidal antiinflammatory agents” (Schering AG, priority 2002, dated 2006).
